This passage reports inhibition in vivo and IC50 results from ChEMBL document CHEMBL4265928, “Design, synthesis, and biological evaluation of 2-(phenoxyaryl)-3-urea derivatives as novel P2Y1 receptor antagonists” (Eur J Med Chem, 2018).

For one assay, the system named is Rattus norvegicus. The experiment in a line: Antiplatelet activity in Sprague-Dawley rat platelet rich plasma assessed as inhibition of ADP-induced platelet aggregation at 3 mg/kg, ig after 2 hrs relative to control. The following applies: po. The class given is functional.
In the next assay the target is P2Y purinoceptor 1 (Homo sapiens, UniProt P47900). As to the kind of experiment: Antagonist activity at P2Y1 (unknown origin) expressed in human 1321N1 cells assessed as induction of calcium stimulation by fluo-4 dye based assay. The class given is functional, cell-based.
P2Y purinoceptor 1, sequence (P47900 whole entry): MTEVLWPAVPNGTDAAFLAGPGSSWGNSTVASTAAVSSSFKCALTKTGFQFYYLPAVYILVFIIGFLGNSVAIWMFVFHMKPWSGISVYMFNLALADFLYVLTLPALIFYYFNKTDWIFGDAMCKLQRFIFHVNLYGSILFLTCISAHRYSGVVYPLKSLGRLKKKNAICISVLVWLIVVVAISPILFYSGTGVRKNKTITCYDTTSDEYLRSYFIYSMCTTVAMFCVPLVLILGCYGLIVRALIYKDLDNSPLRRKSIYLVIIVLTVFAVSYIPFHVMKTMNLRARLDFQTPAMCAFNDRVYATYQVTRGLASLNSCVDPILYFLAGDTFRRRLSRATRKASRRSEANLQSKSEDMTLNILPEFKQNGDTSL

Broadly, the inhibition in vivo is the share of the control response that was lost under treatment. `CC(C)(C)c1ccccc1Oc1ncccc1NC(=O)Nc1ccc(OC(F)(F)F)cc1`: the inhibition in vivo at 3 mg/kg with Rattus norvegicus was 67.4%.

In general, IC50 refers to the concentration that inhibits the measured activity by half. For the compound `Cc1ccc(NC(=O)Nc2ccc(OC(F)(F)F)cc2)c(Oc2ccccc2C(C)(C)C)n1`, on P2Y purinoceptor 1, the IC50 was 0.21 µM. Also, the inhibition in vivo at 3 mg/kg in the assay on Rattus norvegicus turned out to be 68.9%.

On to `CC(C)(C)c1ccccc1Oc1ncccc1NC(=O)N[C@H]1CC[C@H](C)CC1`, for which, on P2Y purinoceptor 1, the half-inhibitory concentration (IC50) amounted to 7.05 µM. Moreover, in the assay with Rattus norvegicus, the inhibition in vivo at 3 mg/kg is 57.6%.

Take `COC(=O)c1ccc(NC(=O)Nc2cccnc2Oc2ccccc2C(C)(C)C)s1`: at P2Y purinoceptor 1, the IC50 was 12.9 µM.

In the case of `CC(C)(C)c1ccccc1Oc1ncccc1NC(=O)NC1CCCC1`, the concentration for half-maximal inhibition (IC50) at P2Y purinoceptor 1 was 2.41 µM.

For `CC1CCCCC1NC(=O)Nc1cccnc1Oc1ccccc1C(C)(C)C` (configuration not stated), the IC50 at P2Y purinoceptor 1 came out at 0.82 µM.

For `CCOC(=O)c1ccc(NC(=O)Nc2cccnc2Oc2ccccc2C(C)(C)C)s1`, the IC50 on P2Y purinoceptor 1 worked out at 12.5 µM. Also, in the assay with Rattus norvegicus, the inhibition in vivo at 3 mg/kg came to 50.6%.

Consider `CC(C)(C)c1ccccc1Oc1ncccc1NC(=O)NC1C2CC3CC(C2)CC1C3` (configuration not stated), for which, at P2Y purinoceptor 1, the IC50 is 0.62 µM. Moreover, the inhibition in vivo at 3 mg/kg in the assay on Rattus norvegicus was determined as 26.7%.

With `CCCCNC(=O)Nc1cccnc1Oc1ccccc1C(C)(C)C`, the concentration for half-maximal inhibition (IC50) on P2Y purinoceptor 1 is 9.98 µM. Further, the inhibition in vivo at 3 mg/kg with Rattus norvegicus worked out at 22%.

`CC(C)(C)c1ccccc1Oc1ncccc1NC(=O)Nc1ccc(C(=O)OCc2ccccc2)s1`: at P2Y purinoceptor 1, the half-maximal inhibitory concentration (IC50) worked out at 7.19 µM. Besides, the inhibition in vivo at 3 mg/kg in the assay on Rattus norvegicus was determined as 69.4%.

As to `CC(C)(C)c1ccccc1Oc1ccccc1NC(=O)Nc1ccc(OC(F)(F)F)cc1`, at P2Y purinoceptor 1, the IC50 was determined as 7.53 µM.
